According to patent publication US8216802B2, “Detection medium for gram negative bacteria” (Biomerieux, priority 2007, dated 2012):

Tests used:
Type in all cases: cell-based
Escherichia coli 407 = assay: Colony coloration on CPS ID 3 medium with cellobiose; conditions: 37° C.
Protocol: (§1) Various concentrations of cellobiose (0-100-350-1000 mg/l) are added to the CPS ID 3 medium (bioMérieux). These media contain 6-chloro-3-indolyl-beta-glucuronide at 250 mg/l and 5-bromo-4-chloro-3-indolyl-beta-glucoside at 50 mg/l. These media are distributed in a proportion of 20 ml per Petri dish. Microorganisms derived from the applicant's collection were inoculated on these media by semi-quantitative isolation of 10 μl of a suspension at 0.5 McFarland, diluted to 1/20. The dishes were incubated at 37° C. for 48 hours. The colonies formed were examined visually after 24 and 48 hours of incubation. The coloration of these colonies was noted.

[1] = tested on: Enterococcus faecalis 117; assay: as above; conditions: 37° C.
Protocol: as §1

Citrobacter freundii 022 [2] = assay: as above; conditions: 37° C.
Protocol: as §1

Serratia marcescens 112 [3] = assay: as above; conditions: 37° C.
Protocol: as §1

Citrobacter freundii 031 [4] = assay: as above; conditions: 37° C.
Protocol: as §1

Citrobacter freundii 104 [5] = assay: as above; conditions: 37° C.
Protocol: as §1

[6] = tested on: Klebsiella pneumoniae 111; assay: as above; conditions: 37° C.
Protocol: as §1

Escherichia coli 003 [7] = assay: as above; conditions: 37° C.
Protocol: as §1

Citrobacter strains [8] = assay: Colony coloration on CPS ID 3 medium with cellobiose (text summary); conditions: in the presence of cellobiose
Protocol: as §1

Citrobacter strains [9] = assay: Colony coloration on supplemented Trypticase Soy medium with cellobiose (text summary)
Protocol: (§2) Various concentrations of cellobiose (0-0.1-1-5-10 g/l) are added to Trypticase Soy medium (bioMérieux) supplemented with 5-bromo-6-chloro-3-indolyl-beta-galactoside at 50 mg/l and with 5-bromo-4-chloro-3-indolyl-beta-glucoside at 50 mg/l. These media are distributed in a proportion of 20 ml per Petri dish. Microorganisms derived from the applicant's collection were inoculated on these media by semi-quantitative isolation of 10 μl of a suspension at 0.5 McFarland, diluted to 1/20. The dishes were incubated at 37° C. for 48 hours. The colonies formed were examined visually after 24 and 48 hours of incubation. The coloration of these colonies was noted.

[10] = tested on: Enterococcus faecalis 117; assay: Colony coloration on supplemented Trypticase Soy medium with cellobiose; conditions: 37° C.
Protocol: as §2

Citrobacter freundii 022 [11] = assay: as above; conditions: 37° C.
Protocol: as §2

Serratia marcescens 112 [12] = assay: as above; conditions: 37° C.
Protocol: as §2

Citrobacter freundii 031 [13] = assay: as above; conditions: 37° C.
Protocol: as §2

Citrobacter freundii 104 [14] = assay: as above; conditions: 37° C.
Protocol: as §2

Escherichia coli 018 = assay: as above; conditions: 37° C.
Protocol: as §2

[15] = tested on: Klebsiella pneumoniae 111; assay: as above; conditions: 37° C.
Protocol: as §2

Escherichia coli 003 [16] = assay: as above; conditions: 37° C.
Protocol: as §2

coloration of the colonies (beta-glucosidase activity expressed) (Citrobacter strains [8]): green to violet coloration
coloration of the colonies (beta-glucosidase activity expressed) (Citrobacter strains [9]; in the presence of cellobiose, supplemented Trypticase Soy medium): green to violet coloration
colony coloration ([10]; cellobiose 0.1 g/l, 24 h): Turquoise
colony coloration ([10]; cellobiose 0.1 g/l, 48 h): Turquoise
colony coloration ([10]; cellobiose 1 g/l, 24 h): Turquoise
colony coloration ([10]; cellobiose 1 g/l, 48 h): Turquoise
colony coloration ([10]; cellobiose 5 g/l, 24 h): Turquoise
colony coloration ([10]; cellobiose 5 g/l, 48 h): Turquoise
colony coloration ([10]; cellobiose 10 g/l, 24 h): Turquoise
colony coloration ([10]; cellobiose 10 g/l, 48 h): Turquoise
colony coloration (Citrobacter freundii 022 [11]; cellobiose 0.1 g/l, 24 h): Violet
colony coloration (Citrobacter freundii 022 [11]; cellobiose 0.1 g/l, 48 h): Blue
colony coloration (Citrobacter freundii 022 [11]; cellobiose 1 g/l, 24 h): Violet
colony coloration (Citrobacter freundii 022 [11]; cellobiose 1 g/l, 48 h): Blue
colony coloration (Citrobacter freundii 022 [11]; cellobiose 5 g/l, 24 h): Pink
colony coloration (Citrobacter freundii 022 [11]; cellobiose 5 g/l, 48 h): Blue
colony coloration (Citrobacter freundii 022 [11]; cellobiose 10 g/l, 24 h): Mauve
colony coloration (Citrobacter freundii 022 [11]; cellobiose 10 g/l, 48 h): Mauve
colony coloration (Serratia marcescens 112 [12]; cellobiose 0.1 g/l, 24 h): Green
colony coloration (Serratia marcescens 112 [12]; cellobiose 0.1 g/l, 48 h): Blue
colony coloration (Serratia marcescens 112 [12]; cellobiose 1 g/l, 24 h): Green
colony coloration (Serratia marcescens 112 [12]; cellobiose 1 g/l, 48 h): Blue
colony coloration (Serratia marcescens 112 [12]; cellobiose 5 g/l, 24 h): Green
colony coloration (Serratia marcescens 112 [12]; cellobiose 5 g/l, 48 h): Blue
colony coloration (Serratia marcescens 112 [12]; cellobiose 10 g/l, 24 h): Turquoise
colony coloration (Serratia marcescens 112 [12]; cellobiose 10 g/l, 48 h): Blue
colony coloration (Citrobacter freundii 031 [13]; cellobiose 0.1 g/l, 24 h): Violet
colony coloration (Citrobacter freundii 031 [13]; cellobiose 0.1 g/l, 48 h): Green
colony coloration (Citrobacter freundii 031 [13]; cellobiose 1 g/l, 24 h): Mauve
colony coloration (Citrobacter freundii 031 [13]; cellobiose 1 g/l, 48 h): Green
colony coloration (Citrobacter freundii 031 [13]; cellobiose 5 g/l, 24 h): Mauve
colony coloration (Citrobacter freundii 031 [13]; cellobiose 5 g/l, 48 h): Green
colony coloration (Citrobacter freundii 031 [13]; cellobiose 10 g/l, 24 h): Mauve
colony coloration (Citrobacter freundii 031 [13]; cellobiose 10 g/l, 48 h): Mauve
colony coloration (Citrobacter freundii 104 [14]; cellobiose 0.1 g/l, 24 h): Violet
colony coloration (Citrobacter freundii 104 [14]; cellobiose 0.1 g/l, 48 h): Green
colony coloration (Citrobacter freundii 104 [14]; cellobiose 1 g/l, 24 h): Violet
colony coloration (Citrobacter freundii 104 [14]; cellobiose 1 g/l, 48 h): Green
colony coloration (Citrobacter freundii 104 [14]; cellobiose 5 g/l, 24 h): Mauve
colony coloration (Citrobacter freundii 104 [14]; cellobiose 5 g/l, 48 h): Green
colony coloration (Citrobacter freundii 104 [14]; cellobiose 10 g/l, 24 h): Mauve
colony coloration (Citrobacter freundii 104 [14]; cellobiose 10 g/l, 48 h): Mauve
colony coloration ([15]; cellobiose 0.1 g/l, 24 h): Green
colony coloration ([15]; cellobiose 0.1 g/l, 48 h): Blue
colony coloration ([15]; cellobiose 1 g/l, 24 h): Green
colony coloration ([15]; cellobiose 1 g/l, 48 h): Blue
colony coloration ([15]; cellobiose 5 g/l, 24 h): Turquoise
colony coloration ([15]; cellobiose 5 g/l, 48 h): Blue
colony coloration ([15]; cellobiose 10 g/l, 24 h): Turquoise
colony coloration ([15]; cellobiose 10 g/l, 48 h): Blue
Compound: O=C[C@H](O)[C@@H](O)[C@H](O[C@@H]1O[C@H](CO)[C@@H](O)[C@H](O)[C@H]1O)[C@H](O)CO [Cellobiose, cellobiose]
colony coloration (Escherichia coli 407; cellobiose 100 mg/l, 24 h): Pink
colony coloration (Escherichia coli 407; cellobiose 100 mg/l, 48 h): Red
colony coloration (Escherichia coli 407; cellobiose 350 mg/l, 24 h): Pink
colony coloration (Escherichia coli 407; cellobiose 350 mg/l, 48 h): Red
colony coloration (Escherichia coli 407; cellobiose 1000 mg/l, 24 h): Pink
colony coloration (Escherichia coli 407; cellobiose 1000 mg/l, 48 h): Red
colony coloration ([1]; cellobiose 100 mg/l, 24 h): Turquoise
colony coloration ([1]; cellobiose 100 mg/l, 48 h): Turquoise
colony coloration ([1]; cellobiose 350 mg/l, 24 h): Turquoise
colony coloration ([1]; cellobiose 350 mg/l, 48 h): Turquoise
colony coloration ([1]; cellobiose 1000 mg/l, 24 h): Turquoise
colony coloration ([1]; cellobiose 1000 mg/l, 48 h): Turquoise
colony coloration (Citrobacter freundii 022 [2]; cellobiose 100 mg/l, 24 h): Violet
colony coloration (Citrobacter freundii 022 [2]; cellobiose 100 mg/l, 48 h): Violet
colony coloration (Citrobacter freundii 022 [2]; cellobiose 350 mg/l, 24 h): Violet
colony coloration (Citrobacter freundii 022 [2]; cellobiose 350 mg/l, 48 h): Violet
colony coloration (Citrobacter freundii 022 [2]; cellobiose 1000 mg/l, 24 h): Violet
colony coloration (Citrobacter freundii 022 [2]; cellobiose 1000 mg/l, 48 h): Violet
colony coloration (Serratia marcescens 112 [3]; cellobiose 100 mg/l, 24 h): Turquoise
colony coloration (Serratia marcescens 112 [3]; cellobiose 100 mg/l, 48 h): Turquoise
colony coloration (Serratia marcescens 112 [3]; cellobiose 350 mg/l, 24 h): Turquoise
colony coloration (Serratia marcescens 112 [3]; cellobiose 350 mg/l, 48 h): Turquoise
colony coloration (Serratia marcescens 112 [3]; cellobiose 1000 mg/l, 24 h): Turquoise
colony coloration (Serratia marcescens 112 [3]; cellobiose 1000 mg/l, 48 h): Turquoise
colony coloration (Citrobacter freundii 031 [4]; cellobiose 100 mg/l, 24 h): Green
colony coloration (Citrobacter freundii 031 [4]; cellobiose 100 mg/l, 48 h): Green
colony coloration (Citrobacter freundii 031 [4]; cellobiose 350 mg/l, 24 h): Green
colony coloration (Citrobacter freundii 031 [4]; cellobiose 350 mg/l, 48 h): Green
colony coloration (Citrobacter freundii 031 [4]; cellobiose 1000 mg/l, 24 h): Colorless
colony coloration (Citrobacter freundii 031 [4]; cellobiose 1000 mg/l, 48 h): Green
colony coloration (Citrobacter freundii 104 [5]; cellobiose 100 mg/l, 24 h): Green
colony coloration (Citrobacter freundii 104 [5]; cellobiose 100 mg/l, 48 h): Green
colony coloration (Citrobacter freundii 104 [5]; cellobiose 350 mg/l, 24 h): Green
colony coloration (Citrobacter freundii 104 [5]; cellobiose 350 mg/l, 48 h): Green
colony coloration (Citrobacter freundii 104 [5]; cellobiose 1000 mg/l, 24 h): Green
colony coloration (Citrobacter freundii 104 [5]; cellobiose 1000 mg/l, 48 h): Green
colony coloration ([6]; cellobiose 100 mg/l, 24 h): Turquoise
colony coloration ([6]; cellobiose 100 mg/l, 48 h): Turquoise
colony coloration ([6]; cellobiose 350 mg/l, 24 h): Turquoise
colony coloration ([6]; cellobiose 350 mg/l, 48 h): Turquoise
colony coloration ([6]; cellobiose 1000 mg/l, 24 h): Turquoise
colony coloration ([6]; cellobiose 1000 mg/l, 48 h): Turquoise
colony coloration (Escherichia coli 003 [7]; cellobiose 100 mg/l, 24 h): Pink
colony coloration (Escherichia coli 003 [7]; cellobiose 100 mg/l, 48 h): Red
colony coloration (Escherichia coli 003 [7]; cellobiose 350 mg/l, 24 h): Pink
colony coloration (Escherichia coli 003 [7]; cellobiose 350 mg/l, 48 h): Red
colony coloration (Escherichia coli 003 [7]; cellobiose 1000 mg/l, 24 h): Pink
colony coloration (Escherichia coli 003 [7]; cellobiose 1000 mg/l, 48 h): Red
differentiation of C. freundii from E. coli (Citrobacter strains [9]; cellobiose concentrations above 5 g/l): less marked
colony coloration (Escherichia coli 018; cellobiose 0.1 g/l, 24 h): Mauve
colony coloration (Escherichia coli 018; cellobiose 0.1 g/l, 48 h): Mauve
colony coloration (Escherichia coli 018; cellobiose 1 g/l, 24 h): Mauve
colony coloration (Escherichia coli 018; cellobiose 1 g/l, 48 h): Mauve
colony coloration (Escherichia coli 018; cellobiose 5 g/l, 24 h): Mauve
colony coloration (Escherichia coli 018; cellobiose 5 g/l, 48 h): Mauve
colony coloration (Escherichia coli 018; cellobiose 10 g/l, 24 h): Mauve
colony coloration (Escherichia coli 018; cellobiose 10 g/l, 48 h): Mauve
colony coloration (Escherichia coli 003 [16]; cellobiose 0.1 g/l, 24 h): Mauve
colony coloration (Escherichia coli 003 [16]; cellobiose 0.1 g/l, 48 h): Mauve
colony coloration (Escherichia coli 003 [16]; cellobiose 1 g/l, 24 h): Mauve
colony coloration (Escherichia coli 003 [16]; cellobiose 1 g/l, 48 h): Mauve
colony coloration (Escherichia coli 003 [16]; cellobiose 5 g/l, 24 h): Mauve
colony coloration (Escherichia coli 003 [16]; cellobiose 5 g/l, 48 h): Mauve
colony coloration (Escherichia coli 003 [16]; cellobiose 10 g/l, 24 h): Mauve
colony coloration (Escherichia coli 003 [16]; cellobiose 10 g/l, 48 h): Mauve
